The source of these data is patent publication US9796711B2, “Substituted pyrazolo[3,4-b]pyridin-6-carboxylic acids and method of use” (AbbVie S.àr.l., priority 2015, dated 2017).

A value given as a limit tells only on which side of the number the result lay.

The target in test [1] is T1, ΔF508-CFTR (Homo sapiens, UniProt P13569, DEL508-508).
T1 construct: host or cells: CFBE41o-, doxycycline-inducible
The experiment in a line: CFTR cell surface levels using HRP-tagged ΔF508-CFTR expressing CFBE cells, intrinsic corrector capacity. It counts as cell-based. As to conditions: HRP-tagged ΔF508-CFTR CFBE41o- cells, compounds alone (intrinsic corrector capacity), 20 hours at 33° C. The source says: Measuring CFTR Cell Surface Levels Using HRP-Tagged AF508-CFTR Expressing CFBE Cells
The HRP-tagged AF508-CFTR cell assay measures the expression of CFTR-ΔF508 at the plasma membrane. CFTR-ΔF508 has a folding defect leading to absence of protein at the plasma membrane. This assay is used to evaluate the capacity of compounds to increase the expression of CFTR-ΔF508 at the plasma membrane. The CFTR-ΔF508 is tagged with HRP (horse radish peroxidase enzyme) within the ECL4 (Extracellular loop 4) of CFTR (Phuan, P.-W. et al. Synergy-based small-molecule screen using a human lung epithelial cell line yields AF508-CFTR correctors that augment VX-809 maximal efficacy. Mol. Pharmacol. 86, 42-51 (2014)). When HRP-tagged AF508-CFTR is present at the plasma membrane, the HRP enzyme activity can be measured. The amount of CFTR-ΔF508 that can be rescued to the plasma membrane is correlated with the amount of functional enzyme that can be measured.
There are several ways to measure the capacity of compounds to rescue CFTR-ΔF508 to the plasma membrane; either compounds are evaluated on their own and the impact on plasma membrane levels is measured or compounds are evaluated in combination with a co-corrector, i.e. a compound that rescues CFTR-ΔF508 to the plasma membrane but rescue can be enhanced by addition of compounds due to a complementary mode of action.
Activity of Compounds for their Intrinsic Corrector Capacity:
For this purpose doxycycline-inducible AF508-CFTR-HRP expressing CFBE4lo-cells (obtained from Gergely Lukacs, McGill University) were maintained in MEM (Gibco; 31095) supplemented with 10% fetal bovine serum (Hyclone; SV30160.03) under puromycin (3 μg/mL) and G418 selection (0.2 mg/mL). For compound testing, cells were seeded at 4000 cells/well in white 384-well plates (Greiner; 781080) in 50 μL medium containing 0.5 μg/mL doxycycline and incubated for 68 hours at 37° C., 5% CO2. On day four, 10 μL test compounds diluted in PBS were added to the plates at a final DMSO concentration of 0.1%. All compound plates contained negative controls (DMSO) and positive controls (3 μM corrector, 3-[(2R,4R)-4-({[1-(2,2-difluoro-1,3-benzodioxol-5-yl)cyclopropyl]carbonyl}amino)-7-methoxy-3,4-dihydro-2H-chromen-2-yl]benzoic acid). Cell plates were incubated at 33° C., 5% CO2 for 20 hours. On day five, the cells were washed five times with phosphate-buffered saline, and HRP activity was assayed by the addition of 50 μL/well of HRP substrate (SuperSignal™ West Pico Chemiluminescent Substrate, Thermo Scientific; 34080). After incubation for 15 minutes in the dark, chemiluminescence was measured using a plate reader (EnVision®, Perkin Elmer). Raw data were normalized to percentage activity values using the equation: 100×(Sample−Negative control)/(Positive control−Negative Control).

The target of test [2] is T1, ΔF508-CFTR. The experiment in a line: CFTR cell surface levels using HRP-tagged ΔF508-CFTR expressing CFBE cells, in the presence of a co-corrector. Conditions: HRP-tagged ΔF508-CFTR expressing CFBE cells, in the presence of 3 μM co-corrector; for EC50: read-out: EC50. It counts as cell-based. In short, it runs like this:
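Cells were seeded with 0.5 μg/mL doxycycline and held 68 h at 37 °C. Test compounds plus 3 μM co-corrector (final 0.1% DMSO) were then added for 20 h at 33 °C. Washed cells received HRP substrate, and luminescence was normalized between DMSO and 3 μM co-corrector controls.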

By EC50 is commonly meant the concentration that produces a half-maximal response.

T1 sequence (P13569 with tags, fused parts or gaps DEL508-508): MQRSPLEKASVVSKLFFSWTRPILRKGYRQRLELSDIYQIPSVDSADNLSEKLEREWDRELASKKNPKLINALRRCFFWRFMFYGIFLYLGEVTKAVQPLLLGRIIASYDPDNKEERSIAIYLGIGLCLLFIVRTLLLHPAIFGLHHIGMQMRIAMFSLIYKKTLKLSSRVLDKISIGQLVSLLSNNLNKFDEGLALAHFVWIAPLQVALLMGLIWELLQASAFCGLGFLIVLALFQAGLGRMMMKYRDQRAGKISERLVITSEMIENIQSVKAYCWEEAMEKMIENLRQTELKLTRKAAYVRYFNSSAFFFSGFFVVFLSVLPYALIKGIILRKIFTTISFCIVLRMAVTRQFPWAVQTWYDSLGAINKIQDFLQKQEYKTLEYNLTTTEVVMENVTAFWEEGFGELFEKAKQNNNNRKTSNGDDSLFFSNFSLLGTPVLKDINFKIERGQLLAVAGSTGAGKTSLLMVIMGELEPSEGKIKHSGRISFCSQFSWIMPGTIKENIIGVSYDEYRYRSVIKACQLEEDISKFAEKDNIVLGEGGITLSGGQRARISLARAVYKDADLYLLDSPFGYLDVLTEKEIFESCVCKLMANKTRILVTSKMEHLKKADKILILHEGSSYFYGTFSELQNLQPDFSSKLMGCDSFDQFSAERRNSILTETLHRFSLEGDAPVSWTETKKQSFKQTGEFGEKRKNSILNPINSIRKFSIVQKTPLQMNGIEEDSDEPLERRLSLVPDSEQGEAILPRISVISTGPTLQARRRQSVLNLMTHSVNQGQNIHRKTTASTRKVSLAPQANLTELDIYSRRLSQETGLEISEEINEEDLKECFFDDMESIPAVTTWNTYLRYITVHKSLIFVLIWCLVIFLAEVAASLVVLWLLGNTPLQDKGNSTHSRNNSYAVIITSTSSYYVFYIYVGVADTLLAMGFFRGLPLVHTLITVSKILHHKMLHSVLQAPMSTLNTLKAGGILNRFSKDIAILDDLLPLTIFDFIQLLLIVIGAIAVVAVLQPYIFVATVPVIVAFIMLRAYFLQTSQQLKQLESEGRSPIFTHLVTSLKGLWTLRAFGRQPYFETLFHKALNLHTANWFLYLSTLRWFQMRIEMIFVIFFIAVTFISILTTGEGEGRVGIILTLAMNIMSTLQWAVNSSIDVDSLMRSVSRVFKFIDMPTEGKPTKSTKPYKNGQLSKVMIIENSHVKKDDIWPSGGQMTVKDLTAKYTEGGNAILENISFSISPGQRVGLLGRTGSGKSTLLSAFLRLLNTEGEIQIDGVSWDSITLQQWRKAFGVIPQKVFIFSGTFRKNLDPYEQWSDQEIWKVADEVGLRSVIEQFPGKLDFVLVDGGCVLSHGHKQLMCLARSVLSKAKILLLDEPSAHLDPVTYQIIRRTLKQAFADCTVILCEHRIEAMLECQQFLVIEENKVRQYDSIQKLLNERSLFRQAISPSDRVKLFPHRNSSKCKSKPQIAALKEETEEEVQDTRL

Consider `Cc1nn(-c2cccc(OC(F)(F)F)c2)c2nc(C(=O)O)cc(-c3ccc(N4CCOCC4)cc3)c12` [compound 35, 3-methyl-4-[4-(morpholin-4-yl)phenyl]-1-[3-(trifluoromethoxy)phenyl]-1H-pyrazolo[3,4-b]pyridine-6-carboxylic acid], for which the “% Activation” value at ΔF508-CFTR [1] (positive control 3 μM corrector) came out at 110.15%. On ΔF508-CFTR [1] (read-out: EC50), the EC50 came to 737 nM.

As for `CC(C)CN1CCC(CN(C)c2cc(C(=O)O)nc3c2c(C2CCC2)nn3-c2ccccc2)CC1` [compound 564, 3-cyclobutyl-4-(methyl{[1-(2-methylpropyl)piperidin-4-yl]methyl}amino)-1-phenyl-1H-pyrazolo[3,4-b]pyridine-6-carboxylic acid], on ΔF508-CFTR [2], the “% Activation” value came out at 369.1% and the EC50 was determined as 2450 nM.

On to `CC(C)c1nn(-c2ccc(F)cc2)c2nc(C(=O)O)cc(N3CCC(CCCN4CCCC4)CC3)c12` [compound 749, 1-(4-fluorophenyl)-3-(propan-2-yl)-4-{4-[3-(pyrrolidin-1-yl)propyl]piperidin-1-yl}-1H-pyrazolo[3,4-b]pyridine-6-carboxylic acid], for which, at ΔF508-CFTR [2], the “% Activation” value is on record as 387% and the EC50 worked out at 277 nM.

`C[C@@H]1CN(c2cc(C(=O)O)nc3c2c(C2CCC2)nn3C2CCCCC2)CCN1Cc1ccccc1` [compound 882, 4-[(3R)-4-benzyl-3-methylpiperazin-1-yl]-3-cyclobutyl-1-cyclohexyl-1H-pyrazolo[3,4-b]pyridine-6-carboxylic acid]: on ΔF508-CFTR [2], the “% Activation” value is 363.85% and the EC50 came to 372 nM.

For `Cc1nn(-c2ccccc2)c2nc(C(=O)O)cc(-c3ccc(N4CCOCC4)nc3)c12` [compound 50, 3-methyl-4-[6-(morpholin-4-yl)pyridin-3-yl]-1-phenyl-1H-pyrazolo[3,4-b]pyridine-6-carboxylic acid], at ΔF508-CFTR [2], the “% Activation” value amounted to 313.2% and the EC50 amounted to 2120 nM.

With `CCOCC1(F)CCN(c2cc(C(=O)O)nc3c2c(C(C)C)nn3-c2ccc(F)cc2)CC1` [compound 666, 4-[4-(ethoxymethyl)-4-fluoropiperidin-1-yl]-1-(4-fluorophenyl)-3-(propan-2-yl)-1H-pyrazolo[3,4-b]pyridine-6-carboxylic acid], on ΔF508-CFTR [2], the “% Activation” value amounted to 338.35% and the EC50 was determined as 253 nM.

`O=C(O)c1cc(N2CCC(CCCN3CCCC3)CC2)c2c(C3CCC3)nn(-c3ccccc3)c2n1` [compound 733, 3-cyclobutyl-1-phenyl-4-{4-[3-(pyrrolidin-1-yl)propyl]piperidin-1-yl}-1H-pyrazolo[3,4-b]pyridine-6-carboxylic acid]: on ΔF508-CFTR [2], the “% Activation” value stood at 396.9% and the EC50 turned out to be 85.1 nM.

Regarding `CN1CCN(c2cc(C(=O)O)nc3c2c(C2CCC2)nn3-c2ccccc2)CC1` [compound 563, 3-cyclobutyl-4-(4-methylpiperazin-1-yl)-1-phenyl-1H-pyrazolo[3,4-b]pyridine-6-carboxylic acid], at ΔF508-CFTR [2], the “% Activation” value was found to be 272.97% and the concentration for a half-maximal effect (EC50) came to 2230 nM.

Regarding `O=C(O)c1cc(N2CCC(N3CCCC(C(=O)N4CCOCC4)C3)CC2)c2c(C3CCC3)nn(-c3ccccc3)c2n1` (stereo not shown) [compound 711, 3-cyclobutyl-4-[3-(morpholine-4-carbonyl)[1,4′-bipiperidin]-1′-yl]-1-phenyl-1H-pyrazolo[3,4-b]pyridine-6-carboxylic acid], on ΔF508-CFTR [2], the “% Activation” value worked out at 248.8% and the EC50 turned out to be 1110 nM.

For the compound `CN(C)C1CCN(c2cc(C(=O)O)nc3c2c(C2CCC2)nn3-c2ccccc2)CC1` [compound 737, 3-cyclobutyl-4-[4-(dimethylamino)piperidin-1-yl]-1-phenyl-1H-pyrazolo[3,4-b]pyridine-6-carboxylic acid], on ΔF508-CFTR [2], the “% Activation” value is recorded as 343.3% and the EC50 came out at 1670 nM.

In the case of `Cc1nn(-c2ccccc2)c2nc(C(=O)O)cc(-c3ccc(N4CCOCC4)cc3)c12` [compound 1, 3-methyl-4-[4-(morpholin-4-yl)phenyl]-1-phenyl-1H-pyrazolo[3,4-b]pyridine-6-carboxylic acid], on ΔF508-CFTR [2], the “% Activation” value worked out at 354.48% and the EC50 is 1040 nM.

As for `O=C(O)c1cc(N2CCC(CN3CCOCC3)CC2)c2c(C3CCC3)nn(-c3ccc(F)cc3)c2n1` [compound 821, 3-cyclobutyl-1-(4-fluorophenyl)-4-{4-[(morpholin-4-yl)methyl]piperidin-1-yl}-1H-pyrazolo[3,4-b]pyridine-6-carboxylic acid], at ΔF508-CFTR [2], the “% Activation” value came to 545.15% and the EC50 is 134 nM.

`CC(C)c1nn(-c2ccc(F)cc2)c2nc(C(=O)O)cc(N3CCC(OCCN4CCCCC4)CC3)c12` [compound 762, 1-(4-fluorophenyl)-4-{4-[2-(piperidin-1-yl)ethoxy]piperidin-1-yl}-3-(propan-2-yl)-1H-pyrazolo[3,4-b]pyridine-6-carboxylic acid]: on ΔF508-CFTR [2], the “% Activation” value was found to be 442.6% and the EC50 stood at 462 nM.

On to `CC(C)c1nn(-c2ccc(F)cc2)c2nc(C(=O)O)cc(NC(=O)C3CCOCC3)c12` [compound 664, 1-(4-fluorophenyl)-4-[(oxane-4-carbonyl)amino]-3-(propan-2-yl)-1H-pyrazolo[3,4-b]pyridine-6-carboxylic acid], for which, at ΔF508-CFTR [2], the “% Activation” value is 120.6% and the EC50 is more than 10000 nM.

For the compound `O=C(O)c1cc(N2CC(N3CCCC3)C2)c2c(C3CCC3)nn(-c3ccccc3)c2n1` [compound 680, 3-cyclobutyl-1-phenyl-4-[3-(pyrrolidin-1-yl)azetidin-1-yl]-1H-pyrazolo[3,4-b]pyridine-6-carboxylic acid], at ΔF508-CFTR [2], the “% Activation” value came to 236.7% and the concentration giving a half-maximal response (EC50) was found to be 1360 nM.

Take `CN(C)[C@@H]1CCN(c2cc(C(=O)O)nc3c2c(C2CCC2)nn3-c2ccccc2)C1` [compound 567, 3-cyclobutyl-4-[(3R)-3-(dimethylamino)pyrrolidin-1-yl]-1-phenyl-1H-pyrazolo[3,4-b]pyridine-6-carboxylic acid]: on ΔF508-CFTR [2], the “% Activation” value stood at 302.8% and the EC50 worked out at 2110 nM.

In the case of `COCCOCC1(F)CCN(c2cc(C(=O)O)nc3c2c(C(C)C)nn3-c2ccc(F)cc2)CC1` [compound 667, 4-{4-fluoro-4-[(2-methoxyethoxy)methyl]piperidin-1-yl}-1-(4-fluorophenyl)-3-(propan-2-yl)-1H-pyrazolo[3,4-b]pyridine-6-carboxylic acid], at ΔF508-CFTR [2], the “% Activation” value worked out at 339.85% and the EC50 is 462 nM.

Take `CN(C)[C@H]1CCN(c2cc(C(=O)O)nc3c2c(C2CCC2)nn3-c2ccccc2)C1` [compound 568, 3-cyclobutyl-4-[(3S)-3-(dimethylamino)pyrrolidin-1-yl]-1-phenyl-1H-pyrazolo[3,4-b]pyridine-6-carboxylic acid]: on ΔF508-CFTR [2], the “% Activation” value was determined as 279.9% and the EC50 stood at 2480 nM.

Regarding `COCc1nn(-c2ccccc2)c2nc(C(=O)O)cc(-c3ccc(N4CCOCC4)cc3)c12` [compound 122, 3-(methoxymethyl)-4-[4-(morpholin-4-yl)phenyl]-1-phenyl-1H-pyrazolo[3,4-b]pyridine-6-carboxylic acid], on ΔF508-CFTR [2], the “% Activation” value was found to be 311.75% and the EC50 is 1770 nM.

As for `O=C(O)c1cc(O[C@H]2C[C@@H](N3CCC3)C2)c2c(C3CCC3)nn(-c3ccccc3)c2n1` [compound 598, 4-{[cis-3-(azetidin-1-yl)cyclobutyl]oxy}-3-cyclobutyl-1-phenyl-1H-pyrazolo[3,4-b]pyridine-6-carboxylic acid], on ΔF508-CFTR [2], the “% Activation” value was 274.4% and the 50% effective concentration (EC50) was 3330 nM.
